Results: ChEMBL document CHEMBL1811813, “Synthesis and cytotoxicity of the depsipeptides analogues of callipeltin B” (Bioorg Med Chem Lett, 2011)
Calls of active or inactive are those of the source. The calls are words filed in the database; no cut-off is given here. Positions of bridges follow the written chain, without caps; N, C: chain ends. Non-standard residues stand in square brackets, D forms with d. Residues, ends and D or L forms follow the SMILES beside them. *: point of attachment. X1 = C[C@@H](OC(C)(C)C)[C@H](NC(=O)[C@@H](NC(=O)[C@@H]1CCC(=O)N1)[C@@H](C)O*)C(=O)O; NHTrityl = c1ccc(C(N*)(c2ccccc2)c2ccccc2)cc1; Pbf = Cc1c(C)c(S(=O)(=O)*)c(C)c2c1OC(C)(C)C2; NMeQ = CN[C@@H](CCC(N)=O)C(=O)O; pGlu = O=C1CC[C@@H](C(=O)O)N1; NMeA = CN[C@@H](C)C(=O)O; Boc = CC(C)(C)OC(=O)*; tBu = CC(C)(C)*

Columns and labels:
Type in all cases: functional, cell-based
[1] = system: HeLa; experiment: Cytotoxicity against human HeLa cells assessed as protease release from damaged cell after at 4-1000 uM after 24 hrs by luminometry
[2] = system: HeLa; experiment: Cytotoxicity against human HeLa cells assessed as protease release from damaged cell at 4-100 uM after 24 hrs by luminometry
[3] = system: HeLa; experiment: Cytotoxicity against human HeLa cells after 24 hrs by luminometry

SMILES	Activity [2]	further results
Cc1c(C)c(S(=O)(=O)NC(=N)NCCC[C@H](NC(=O)[C@@H](NC(=O)[C@@H](NC(=O)[C@H](CCC(N)=O)NC(=O)OC(C)(C)C)[C@@H](C)O)[C@@H](C)OC(C)(C)C)C(=O)N[C@@H](CC(C)C)C(=O)N[C@@H](CCC(=O)NC(c2ccccc2)(c2ccccc2)c2ccccc2)C(=O)N[C@@H](Cc2ccc(OC(C)(C)C)cc2)C(=O)N[C@@H](C)C(=O)O)c(C)c2c1OC(C)(C)C2 (Boc-QTT(tBu)R(Pbf)LE(NHTrityl)Y(tBu)A-OH)	–	Activity [1]: inactive
Cc1c(C)c(S(=O)(=O)NC(=N)NCCC[C@@H]2NC(=O)[C@H]([C@@H](C)OC(C)(C)C)NC(=O)[C@@H](NC(=O)[C@@H](N)CCC(N)=O)[C@@H](C)OC(=O)[C@H](C)NC(=O)[C@H](Cc3ccc(OC(C)(C)C)cc3)NC(=O)[C@H](CCC(=O)NC(c3ccccc3)(c3ccccc3)c3ccccc3)NC(=O)[C@H](CC(C)C)NC2=O)c(C)c2c1OC(C)(C)C2 (H-QTT(tBu)R(Pbf)LE(NHTrityl)Y(tBu)A; ester 2-C)	inactive	–
Cc1c(C)c(S(=O)(=O)NC(=N)NCCC[C@H](N)C(=O)N[C@@H](CC(C)C)C(=O)N[C@@H](CCC(=O)NC(c2ccccc2)(c2ccccc2)c2ccccc2)C(=O)N[C@@H](Cc2ccc(OC(C)(C)C)cc2)C(=O)N[C@@H](C)C(=O)O[C@H](C)[C@H](NC(=O)[C@@H]2CCC(=O)N2)C(=O)N[C@H](C(=O)O)[C@@H](C)OC(C)(C)C)c(C)c2c1OC(C)(C)C2 (H-R(Pbf)LE(NHTrityl)Y(tBu)A-X1)	–	IC50 [3]: 2.26 mM
CC(C)C[C@@H]1NC(=O)[C@H](CCCNC(=N)N)NC(=O)[C@H]([C@@H](C)O)NC(=O)[C@@H](NC(=O)[C@@H]2CCC(=O)N2)[C@@H](C)OC(=O)[C@H](C)NC(=O)[C@H](Cc2ccc(O)cc2)NC(=O)[C@H](CCC(N)=O)NC1=O ([pGlu]TTRLQYA; ester 2-C)	inactive	–
CC(C)C[C@@H]1NC(=O)[C@H](C)N(C)C(=O)[C@H]([C@@H](C)O)NC(=O)[C@@H](NC(=O)[C@@H]2CCC(=O)N2)[C@@H](C)OC(=O)[C@H](CCC(N)=O)NC(=O)[C@H](Cc2ccc(O)cc2)NC(=O)[C@H](CCCNC(=N)N)NC1=O ([pGlu]TT[NMeA]LRYQ; ester 2-C)	inactive	–
CC(C)C[C@@H]1NC(=O)[C@H](C)N(C)C(=O)[C@H]([C@@H](C)O)NC(=O)[C@@H](NC(=O)[C@@H]2CCC(=O)N2)[C@@H](C)OC(=O)[C@H](CCC(N)=O)N(C)C(=O)[C@H](Cc2ccc(O)cc2)NC(=O)[C@H](CCCNC(=N)N)NC1=O ([pGlu]TT[NMeA]LRY[NMeQ]; ester 2-C)	inactive	–
C=C(C)[C@H]1Cc2c(ccc3c2O[C@@H]2COc4cc(OC)c(OC)cc4[C@@H]2C3=O)O1 [ROTENONE]	–	IC50 [3]: 0.078 mM
